Reference: US11596611B2, “Hepatitis B antiviral agents” (ENANTA PHARMACEUTICALS, INC., priority 2017, dated 2023)

What was measured:
[1] = Compound toxicity by ATPLite (total ATP levels); format: cell-based; conditions: human, three days after compound addition, 50% reduction of total ATP
Protocol: Methods: HepAD38 cells are maintained as previously reported (Ladner et al, Antimicrob. Agents Chemother. 1997, […], 1715). Briefly, cells are passaged upon attaining confluency in DMEM/F12 media in the presence of 10% FBS, Penn/Strep, 250 μg/mL G418, and 1 ug/ml tetracycline. Novel compounds are screened by first washing cells three times with PBS to remove tetracycline, and plating in 96 well plates at 35,000 cells/well. Compounds dissolved in DMSO are then diluted 1:200 into wells containing cells. Five days after compound addition, material is harvested for analysis. For an extended 8 days analysis, cells are plated and treated as described above, but media and compound are refreshed on d2 and d5 post initial treatment.
Compound toxicity is evaluated by seeding cells at 15,000 cells/well and treating with compound as described above.

HBV = assay: HepAD38 antiviral assay: reduction of viral product accumulation (virion DNA by qPCR, HBsAg or HBeAg by ELISA); format: cell-based, hepatitis B virus; conditions: Hepatitis B virus, 120 h; HepAD38 cells, five days after compound addition; 50% reduction of viral product vs no drug controls; read-out: HepAD38 EC50
In short: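 Tetracycline-free HepAD38 cells exposed to compound (DMSO stock diluted 1:200) for 5 days, or 8 days with media and compound refreshed on d2 and d5. Virion DNA quantified by qPCR after lysis; HBsAg or HBeAg measured by ELISA on diluted samples.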

SMILES: CC(C)OC(=O)N[C@@H](C)C(=O)NC[C@]1(O)C2CCC1C[C@@H](S(=O)(=O)c1cc(C(=O)Nc3cc(F)c(F)c(F)c3)ccc1Cl)C2 [Example 70]
- CC50 at 3 days ([1]; class symbols): > 25000 nM
- EC50 (HBV): < 104 nM

SMILES: CC(C)(O)CNC(=O)C[C@]1(O)C2CCC1C[C@@H](S(=O)(=O)c1cc(C(=O)Nc3cc(F)c(F)c(F)c3)ccc1Cl)C2 [Example 71]
- CC50 at 3 days ([1]; numeric bounds): > 3000 nM
- EC50 (HBV): < 104 nM

SMILES: O=C(C[C@]1(O)C2CCC1C[C@@H](S(=O)(=O)c1cc(C(=O)Nc3cc(F)c(F)c(F)c3)ccc1Cl)C2)N[C@H]1CCOC1 [Example 72]
- CC50 at 3 days ([1]; numeric bounds): > 3000 nM
- EC50 (HBV): < 104 nM

SMILES: O=C(C[C@]1(O)C2CCC1C[C@@H](S(=O)(=O)c1cc(C(=O)Nc3cc(F)c(F)c(F)c3)ccc1Cl)C2)N[C@@H]1CCOC1 [Example 73]
- CC50 at 3 days ([1]; numeric bounds): > 6250 nM
- EC50 (HBV): < 104 nM

SMILES: O=C(Nc1cc(F)c(F)c(F)c1)c1ccc(Cl)c(S(=O)(=O)[C@H]2CC3CCC(C2)[C@]3(O)CNC(=O)c2ncco2)c1 [Example 88]
- CC50 at 3 days ([1]; numeric bounds): > 6250 nM
- EC50 (HBV): < 104 nM

SMILES: O=C(Nc1cc(F)c(F)c(F)c1)c1ccc(Cl)c(S(=O)(=O)[C@H]2CC3CCC(C2)[C@]3(O)CNC(=O)C2CCOCC2)c1 [Example 89]
- CC50 at 3 days ([1]; numeric bounds): > 6250 nM
- EC50 (HBV): < 104 nM

SMILES: O=C(Nc1cc(F)c(F)c(F)c1)c1ccc(Cl)c(S(=O)(=O)[C@H]2CC3CCC(C2)[C@]3(O)CNC(=O)C2CCCOC2)c1 (stereo partly drawn) [Example 90]
- CC50 at 3 days ([1]; numeric bounds): > 6250 nM
- EC50 (HBV): < 104 nM

SMILES: O=C(Nc1cc(F)c(F)c(F)c1)c1ccc(Cl)c(S(=O)(=O)[C@H]2CC3CCC(C2)[C@]3(O)CNC(=O)C2CCCCO2)c1 (stereo partly drawn) [Example 91]
- CC50 at 3 days ([1]; class symbols): 10000 to 25000 nM
- EC50 (HBV): < 104 nM

SMILES: O=C(Nc1cc(F)c(F)c(F)c1)c1ccc(Cl)c(S(=O)(=O)[C@H]2CC3CCC(C2)[C@]3(O)CC(=O)N2CC(O)C2)c1 [Example 92]
- CC50 at 3 days ([1]; numeric bounds): > 6250 nM
- EC50 (HBV): < 104 nM

SMILES: CC(C)(O)C1CN(C(=O)C[C@]2(O)C3CCC2C[C@@H](S(=O)(=O)c2cc(C(=O)Nc4cc(F)c(F)c(F)c4)ccc2Cl)C3)C1 [Example 93]
- CC50 at 3 days ([1]; numeric bounds): > 6250 nM
- EC50 (HBV): < 104 nM

SMILES: O=C(C[C@]1(O)C2CCC1C[C@@H](S(=O)(=O)c1cc(C(=O)Nc3cc(F)c(F)c(F)c3)ccc1Cl)C2)N[C@H]1C[C@H](O)C1 [Example 111]
- CC50 at 3 days ([1]; numeric bounds): > 3000 nM
- EC50 (HBV): < 104 nM

SMILES: C[C@H](O)CNC(=O)C[C@]1(O)C2CCC1C[C@@H](S(=O)(=O)c1cc(C(=O)Nc3cc(F)c(F)c(F)c3)ccc1Cl)C2 [Example 112]
- CC50 at 3 days ([1]; numeric bounds): > 6250 nM
- EC50 (HBV): < 104 nM

SMILES: C[C@@H](O)CNC(=O)C[C@]1(O)C2CCC1C[C@@H](S(=O)(=O)c1cc(C(=O)Nc3cc(F)c(F)c(F)c3)ccc1Cl)C2 [Example 113]
- CC50 at 3 days ([1]; numeric bounds): > 6250 nM
- EC50 (HBV): < 104 nM

SMILES: COCCNC(=O)C[C@]1(O)C2CCC1C[C@@H](S(=O)(=O)c1cc(C(=O)Nc3cc(F)c(F)c(F)c3)ccc1Cl)C2 [Example 114]
- CC50 at 3 days ([1]; numeric bounds): > 6250 nM
- EC50 (HBV): < 104 nM

SMILES: COCC1(NC(=O)C[C@]2(O)C3CCC2C[C@@H](S(=O)(=O)c2cc(C(=O)Nc4cc(F)c(F)c(F)c4)ccc2Cl)C3)CC1 [Example 116]
- CC50 at 3 days ([1]; numeric bounds): > 3000 nM
- EC50 (HBV): < 104 nM

SMILES: O=C(C[C@]1(O)C2CCC1C[C@@H](S(=O)(=O)c1cc(C(=O)Nc3cc(F)c(F)c(F)c3)ccc1Cl)C2)NC1(CO)CC1 [Example 117]
- CC50 at 3 days ([1]; numeric bounds): > 6250 nM
- EC50 (HBV): < 104 nM

SMILES: COC[C@@H](O)COC[C@]1(O)C2CCC1C[C@@H](S(=O)(=O)c1cc(C(=O)Nc3cc(F)c(F)c(F)c3)ccc1Cl)C2 [Example 122]
- CC50 at 3 days ([1]; class symbols): > 25000 nM
- EC50 (HBV): < 104 nM

SMILES: CC(=O)N(C[C@H](C)O)C[C@]1(O)C2CCC1C[C@@H](S(=O)(=O)c1cc(C(=O)Nc3cc(F)c(F)c(F)c3)ccc1Cl)C2 [Example 125]
- CC50 at 3 days ([1]; numeric bounds): > 6250 nM
- EC50 (HBV): < 104 nM

SMILES: CC(=O)N(C[C@@H](C)O)C[C@]1(O)C2CCC1C[C@@H](S(=O)(=O)c1cc(C(=O)Nc3cc(F)c(F)c(F)c3)ccc1Cl)C2 [Example 126]
- CC50 at 3 days ([1]; numeric bounds): > 6250 nM
- EC50 (HBV): < 104 nM

SMILES: C[C@H](O)CNC(=O)C[C@]1(O)C2CCC1C[C@@H](S(=O)(=O)c1cc(C(=O)Nc3ccc(F)c(C(F)F)c3)ccc1Cl)C2 [Example 129]
- CC50 at 3 days ([1]; class symbols): > 25000 nM
- EC50 (HBV): < 104 nM

SMILES: C[C@H](O)COC[C@]1(O)C2CCC1C[C@@H](S(=O)(=O)c1cc(C(=O)Nc3cc(F)c(F)c(F)c3)ccc1Cl)C2 [Example 131]
- CC50 at 3 days ([1]; numeric bounds): > 12500 nM
- EC50 (HBV): < 104 nM

SMILES: C=CCc1cc(Cl)c(S(=O)(=O)[C@H]2CC3CCC(C2)[C@@]3(C)O)cc1C(=O)Nc1ccc(F)c(F)c1 [Example 135]
- CC50 at 3 days ([1]; class symbols): < 10000 nM
- EC50 (HBV): < 104 nM

SMILES: O=C(Nc1ccc(F)c(C(F)F)c1)c1ccc(Cl)c(S(=O)(=O)[C@H]2CC3CCC(C2)[C@]3(O)CO)c1 [Example 151]
- CC50 at 3 days ([1]; class symbols): > 25000 nM
- EC50 (HBV): < 104 nM

SMILES: CC(C)(C)OC(=O)N[C@@H](Cc1ccccc1)C(=O)N1C2CCC1CC(S(=O)(=O)c1cc(C(=O)Nc3cc(F)c(F)c(F)c3)ccc1Cl)C2 (stereo partly drawn) [Example 152]
- CC50 at 3 days ([1]; class symbols): > 25000 nM
- EC50 (HBV): > 200 nM

SMILES: C[C@@H](O)CNC(=O)C[C@]1(O)C2CCC1C[C@@H](S(=O)(=O)c1cc(C(=O)Nc3ccc(F)c(C(F)F)c3)ccc1Cl)C2 [Example 155]
- CC50 at 3 days ([1]; class symbols): > 25000 nM
- EC50 (HBV): < 104 nM

SMILES: O=C(Nc1ccc(F)c(F)c1)c1ccc(Cl)c(S(=O)(=O)[C@H]2CC3CCC(C2)[C@]3(O)CNC(=O)c2ncco2)c1 [Example 167]
- CC50 at 3 days ([1]; numeric bounds): > 12500 nM
- EC50 (HBV): < 104 nM

SMILES: O=C(Nc1ccc(F)c(F)c1)c1ccc(Cl)c(S(=O)(=O)[C@H]2CC3CCC(C2)[C@]3(O)CNC(=O)c2nccs2)c1 [Example 168]
- CC50 at 3 days ([1]; class symbols): 10000 to 25000 nM
- EC50 (HBV): < 104 nM

SMILES: C[C@H](O)COC[C@]1(O)C2CCC1C[C@@H](S(=O)(=O)c1cc(C(=O)Nc3ccc(F)c(F)c3)ccc1Cl)C2 [Example 176]
- CC50 at 3 days ([1]; numeric bounds): > 6250 nM
- EC50 (HBV): < 104 nM

SMILES: C[C@@H](O)COC[C@]1(O)C2CCC1C[C@@H](S(=O)(=O)c1cc(C(=O)Nc3ccc(F)c(F)c3)ccc1Cl)C2 [Example 177]
- CC50 at 3 days ([1]; numeric bounds): > 6250 nM
- EC50 (HBV): < 104 nM

SMILES: C[C@@H](O)[C@H](O)COC[C@]1(O)C2CCC1C[C@@H](S(=O)(=O)c1cc(C(=O)Nc3ccc(F)c(F)c3)ccc1Cl)C2 [Example 178]
- CC50 at 3 days ([1]; class symbols): > 25000 nM
- EC50 (HBV): < 104 nM

SMILES: C[C@H](O)[C@@H](O)COC[C@]1(O)C2CCC1C[C@@H](S(=O)(=O)c1cc(C(=O)Nc3ccc(F)c(F)c3)ccc1Cl)C2 [Example 179]
- CC50 at 3 days ([1]; class symbols): > 25000 nM
- EC50 (HBV): < 104 nM

SMILES: C[C@H](O)CNC(=O)C[C@]1(O)C2CCC1C[C@@H](S(=O)(=O)c1cc(C(=O)Nc3ccc(F)c(F)c3)ccc1Cl)C2 [Example 185]
- CC50 at 3 days ([1]; numeric bounds): > 12500 nM
- EC50 (HBV): < 104 nM

SMILES: C[C@@H](O)CNC(=O)C[C@]1(O)C2CCC1C[C@@H](S(=O)(=O)c1cc(C(=O)Nc3ccc(F)c(F)c3)ccc1Cl)C2 [Example 186]
- CC50 at 3 days ([1]; numeric bounds): > 12500 nM
- EC50 (HBV): < 104 nM

SMILES: CC(C)(O)CNC(=O)C[C@]1(O)C2CCC1C[C@@H](S(=O)(=O)c1cc(C(=O)Nc3ccc(F)c(F)c3)ccc1Cl)C2 [Example 187]
- CC50 at 3 days ([1]; numeric bounds): > 12500 nM
- EC50 (HBV): < 104 nM

SMILES: CO[C@@H](C)CNC(=O)C[C@]1(O)C2CCC1C[C@@H](S(=O)(=O)c1cc(C(=O)Nc3ccc(F)c(F)c3)ccc1Cl)C2 [Example 188]
- CC50 at 3 days ([1]; numeric bounds): > 12500 nM
- EC50 (HBV): < 104 nM

SMILES: CO[C@H](C)CNC(=O)C[C@]1(O)C2CCC1C[C@@H](S(=O)(=O)c1cc(C(=O)Nc3ccc(F)c(F)c3)ccc1Cl)C2 [Example 189]
- CC50 at 3 days ([1]; numeric bounds): > 12500 nM
- EC50 (HBV): < 104 nM
